Test results as given in ChEMBL document CHEMBL1201862, “PubChem BioAssay data set” (2004).
Active and inactive are the calls of the source.

Key:
cells = type: functional, cell-based
[1] = test system: Streptococcus sp. 'group A'; assay: growth inhibition of control SK(-) GAS strain, dose response, counter-screen for streptokinase expression inhibitor project, luminescence, kanamycin, BacTiterGlo, confirmation (AID 1900); type: functional, organism-based
[2] = C. albicans growth with fluconazole, confirmation, fluorescence, retest (AID 2467); type: functional, cell-based
[3] = inhibitors of firefly luciferase expression or activity, dose response, H4 neuroglioma cells, luminescence (AID 1990); type: functional, cell-based
[4] = cytotoxicity in HEK-293T cells, dose response, cytotoxicity control for TCR NF-kB inhibitor project, luminescence, T-cell screen hits (AID 489026); type: functional, cell-based;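 further: cells exposed to compound about 14 hours before the viability readout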
Cysteine protease ATG4B = molecular target: T1, Cysteine protease ATG4B (Homo sapiens, UniProt Q9Y4P1); assay: ATG4B protease inhibitors, dose response, biochemical, fluorescence, set 2 (AID 588584); type: functional
T1 sequence (Q9Y4P1 whole entry): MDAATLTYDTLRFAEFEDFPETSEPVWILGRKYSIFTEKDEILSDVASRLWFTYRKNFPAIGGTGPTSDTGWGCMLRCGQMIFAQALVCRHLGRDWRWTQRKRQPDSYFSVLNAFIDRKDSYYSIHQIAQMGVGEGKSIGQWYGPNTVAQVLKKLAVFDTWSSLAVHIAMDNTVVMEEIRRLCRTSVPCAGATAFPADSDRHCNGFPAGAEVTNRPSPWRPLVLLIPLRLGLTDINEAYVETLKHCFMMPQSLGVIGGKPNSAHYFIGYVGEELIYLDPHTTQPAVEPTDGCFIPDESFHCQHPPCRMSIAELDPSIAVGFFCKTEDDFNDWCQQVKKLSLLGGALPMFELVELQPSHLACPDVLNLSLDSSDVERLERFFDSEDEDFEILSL

Phospholipase A2 = Phospholipase A2 (Homo sapiens, UniProt P04054); type: functional;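 further: confirmatory dose-response counterscreen on phospholipase A2, testing hits that came from an ultra-high-throughput screen for ATG4B inhibitors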
Sequence of Phospholipase A2 (P04054 whole entry): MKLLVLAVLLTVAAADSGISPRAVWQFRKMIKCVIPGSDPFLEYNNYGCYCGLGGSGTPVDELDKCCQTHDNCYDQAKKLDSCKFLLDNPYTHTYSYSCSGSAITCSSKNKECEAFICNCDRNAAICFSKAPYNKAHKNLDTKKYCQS

[5] = cytotoxicity toward NIH3T3 fibroblasts, dose response, counter-screen, cell-based, ATP luminescence, mouse fibroblasts (AID 2010); type: functional;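 further: cells exposed to compound for about 90 hours before reading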
Troponin, cardiac muscle = Troponin, cardiac muscle (Homo sapiens, UniProt P19429+P45379+P63316); assay: inhibitors of cardiac thin filament calcium sensitivity, dose response, biochemical, fluorescence, cardiac regulated thin filaments, triplicate IC50 (AID 504742); type: protein-complex assay
Ephrin type-A receptor 4 = Ephrin type-A receptor 4 (Mus musculus, UniProt Q03137); assay: inhibitors of EphA4 binding to KYL peptide, primary screen, biochemical, colorimetric, mouse EphA4 (AID 689); type: functional
Sequence of Ephrin type-A receptor 4 (Q03137 whole entry): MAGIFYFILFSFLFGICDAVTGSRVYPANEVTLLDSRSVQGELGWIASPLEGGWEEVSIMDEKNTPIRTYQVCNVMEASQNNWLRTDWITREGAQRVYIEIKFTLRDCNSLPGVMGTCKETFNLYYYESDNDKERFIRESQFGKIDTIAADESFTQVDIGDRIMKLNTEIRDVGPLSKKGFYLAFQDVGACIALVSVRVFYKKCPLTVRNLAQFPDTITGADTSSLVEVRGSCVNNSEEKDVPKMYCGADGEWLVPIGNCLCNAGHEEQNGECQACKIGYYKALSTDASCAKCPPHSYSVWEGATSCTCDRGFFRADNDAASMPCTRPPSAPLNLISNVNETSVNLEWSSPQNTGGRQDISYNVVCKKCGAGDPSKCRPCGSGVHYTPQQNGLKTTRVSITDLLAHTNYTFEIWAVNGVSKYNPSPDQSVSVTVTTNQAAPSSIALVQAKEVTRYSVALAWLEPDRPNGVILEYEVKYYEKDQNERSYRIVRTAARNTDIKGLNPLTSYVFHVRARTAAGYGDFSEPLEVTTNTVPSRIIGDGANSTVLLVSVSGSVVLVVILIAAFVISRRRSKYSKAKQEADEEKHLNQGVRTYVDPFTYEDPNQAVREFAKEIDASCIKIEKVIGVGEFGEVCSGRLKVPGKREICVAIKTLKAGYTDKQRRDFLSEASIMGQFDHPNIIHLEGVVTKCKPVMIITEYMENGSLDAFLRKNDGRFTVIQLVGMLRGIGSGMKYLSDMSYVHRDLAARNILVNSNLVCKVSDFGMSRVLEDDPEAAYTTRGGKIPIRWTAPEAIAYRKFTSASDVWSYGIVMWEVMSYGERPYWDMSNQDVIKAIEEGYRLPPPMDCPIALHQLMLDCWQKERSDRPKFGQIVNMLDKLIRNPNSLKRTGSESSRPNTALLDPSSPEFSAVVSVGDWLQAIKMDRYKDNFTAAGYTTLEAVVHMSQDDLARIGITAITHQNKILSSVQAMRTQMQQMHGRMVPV

[6] = molecular target: Bifunctional protein GlmU (Mycobacterium tuberculosis, UniProt P9WMN3); assay: Inhibitors of Mycobacterial Glucosamine-1-phosphate acetyl transferase (GlmU). Secondary screen.; parameters: species or system Mycobacterium tuberculosis H37Rv
Sequence of Bifunctional protein GlmU (P9WMN3 whole entry): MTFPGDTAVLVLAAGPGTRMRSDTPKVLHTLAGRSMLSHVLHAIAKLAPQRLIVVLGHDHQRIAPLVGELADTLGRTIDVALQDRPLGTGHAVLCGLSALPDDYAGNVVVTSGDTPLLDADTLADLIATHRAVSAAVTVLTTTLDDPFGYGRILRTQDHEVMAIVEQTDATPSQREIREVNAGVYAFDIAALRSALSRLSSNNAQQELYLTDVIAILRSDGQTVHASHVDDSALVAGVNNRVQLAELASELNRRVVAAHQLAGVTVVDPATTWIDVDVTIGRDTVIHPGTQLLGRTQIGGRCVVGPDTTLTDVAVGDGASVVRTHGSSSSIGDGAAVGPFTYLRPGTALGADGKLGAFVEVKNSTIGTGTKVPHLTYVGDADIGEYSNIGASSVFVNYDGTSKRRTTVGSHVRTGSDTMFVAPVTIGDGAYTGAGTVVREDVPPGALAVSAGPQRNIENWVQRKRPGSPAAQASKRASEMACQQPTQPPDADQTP

[7] = molecular target: Induced myeloid leukemia cell differentiation protein Mcl-1 (Homo sapiens, UniProt Q07820); type: functional
Sequence of Induced myeloid leukemia cell differentiation protein Mcl-1 (Q07820 whole entry): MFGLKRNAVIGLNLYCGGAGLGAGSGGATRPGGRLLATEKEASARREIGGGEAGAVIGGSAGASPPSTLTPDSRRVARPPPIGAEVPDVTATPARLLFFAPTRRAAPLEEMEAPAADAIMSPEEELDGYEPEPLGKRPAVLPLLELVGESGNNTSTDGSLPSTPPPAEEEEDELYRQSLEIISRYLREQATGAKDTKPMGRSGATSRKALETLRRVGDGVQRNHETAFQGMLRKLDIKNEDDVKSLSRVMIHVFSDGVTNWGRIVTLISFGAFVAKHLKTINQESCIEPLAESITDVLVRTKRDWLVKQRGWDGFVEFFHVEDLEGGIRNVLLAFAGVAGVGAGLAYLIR

Beta-lactamase = Beta-lactamase (Pseudomonas aeruginosa, UniProt Q79MP6);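 further: biochemical dose-response test of metallo-beta-lactamase enzyme inhibition, read out by epi-absorbance; purified recombinant IMP-1 metallo-beta-lactamase with nitrocefin as substrate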
Sequence of Beta-lactamase (Q79MP6 whole entry): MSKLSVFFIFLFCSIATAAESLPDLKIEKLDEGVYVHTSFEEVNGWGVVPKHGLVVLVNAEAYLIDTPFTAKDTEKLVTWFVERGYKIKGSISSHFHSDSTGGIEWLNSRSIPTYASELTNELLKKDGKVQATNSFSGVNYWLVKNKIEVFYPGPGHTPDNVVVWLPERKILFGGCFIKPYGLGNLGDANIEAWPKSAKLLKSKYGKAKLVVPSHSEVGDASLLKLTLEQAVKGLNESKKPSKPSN

[8] = molecular target: UDP-galactopyranose mutase (Mycobacterium tuberculosis, UniProt P9WIQ1); assay: Inhibitors of Mycobacterium tuberculosis UDP-galactopyranose mutase (UGM) enzyme Measured in Biochemical System Using Plate Reader - 2105-02_Inhibitor_Dose_CherryPick_Activity. [Related pubchem assays (depositor defined):AID504439]
Sequence of UDP-galactopyranose mutase (P9WIQ1 whole entry): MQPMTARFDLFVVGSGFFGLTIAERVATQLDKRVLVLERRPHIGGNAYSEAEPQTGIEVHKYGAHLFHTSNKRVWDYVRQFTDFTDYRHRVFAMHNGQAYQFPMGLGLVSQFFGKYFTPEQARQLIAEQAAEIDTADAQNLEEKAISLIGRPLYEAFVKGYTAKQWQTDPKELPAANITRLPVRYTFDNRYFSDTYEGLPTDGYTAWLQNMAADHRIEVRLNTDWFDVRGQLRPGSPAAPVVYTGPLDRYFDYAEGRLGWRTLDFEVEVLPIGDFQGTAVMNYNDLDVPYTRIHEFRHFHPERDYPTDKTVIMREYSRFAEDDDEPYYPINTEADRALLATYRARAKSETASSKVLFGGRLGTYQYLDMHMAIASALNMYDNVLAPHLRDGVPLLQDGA

Insulin-degrading enzyme = molecular target: T2, Insulin-degrading enzyme (Homo sapiens, UniProt P14735); assay: activators of recombinant IDE enzyme, dose response, counter-screen for IDE activator project, biochemical, fluorescence polarization (AID 588681)
T2 sequence (P14735 whole entry): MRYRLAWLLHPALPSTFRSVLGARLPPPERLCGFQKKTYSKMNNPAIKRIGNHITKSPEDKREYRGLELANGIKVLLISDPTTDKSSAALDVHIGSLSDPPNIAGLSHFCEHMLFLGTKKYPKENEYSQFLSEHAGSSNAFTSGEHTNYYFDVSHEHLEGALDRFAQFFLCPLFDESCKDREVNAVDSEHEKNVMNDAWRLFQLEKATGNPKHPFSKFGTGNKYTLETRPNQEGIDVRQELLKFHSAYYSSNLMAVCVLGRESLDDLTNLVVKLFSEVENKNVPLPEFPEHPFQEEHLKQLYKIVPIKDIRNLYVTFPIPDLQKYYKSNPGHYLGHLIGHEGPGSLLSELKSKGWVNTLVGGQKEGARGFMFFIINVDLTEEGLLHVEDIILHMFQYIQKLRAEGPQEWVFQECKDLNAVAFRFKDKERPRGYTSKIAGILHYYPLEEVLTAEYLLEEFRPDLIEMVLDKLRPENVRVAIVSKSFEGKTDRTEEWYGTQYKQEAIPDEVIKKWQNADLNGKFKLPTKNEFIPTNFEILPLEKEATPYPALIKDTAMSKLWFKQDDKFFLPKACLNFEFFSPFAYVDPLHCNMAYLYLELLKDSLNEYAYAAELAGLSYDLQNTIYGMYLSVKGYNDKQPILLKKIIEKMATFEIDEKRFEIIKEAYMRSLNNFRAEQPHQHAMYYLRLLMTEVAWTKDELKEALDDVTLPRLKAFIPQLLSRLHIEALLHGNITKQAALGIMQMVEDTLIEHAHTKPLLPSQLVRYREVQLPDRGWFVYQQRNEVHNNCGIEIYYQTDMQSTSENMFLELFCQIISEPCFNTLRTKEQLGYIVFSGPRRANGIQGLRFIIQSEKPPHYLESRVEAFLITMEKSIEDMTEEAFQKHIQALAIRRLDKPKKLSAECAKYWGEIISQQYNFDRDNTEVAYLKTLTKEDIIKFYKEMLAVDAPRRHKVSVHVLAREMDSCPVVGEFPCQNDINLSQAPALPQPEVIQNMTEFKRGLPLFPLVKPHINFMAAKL

HEK293 = assay: HEK cell cytotoxicity by LDH release, dose response, cytotoxicity control for IDE activator project, fluorescence, HEK cells (AID 588440); type: functional, cell-based; conditions: Homo sapiens;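 further: cytotoxicity by LDH release measuring loss of membrane integrity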

Compound: Oc1ccc2ccccc2c1/C=N/Nc1nnc(-c2ncc[nH]2)c2ccccc12
- EC50 (cells): > 350 µM (not active)
- EC50 [1]: 1.98 µM (active)
- EC50 [2]: 0.714 µM (active)
- EC50 [3]: 0.178 µM (active)
- IC50 [4]: > 80 µM (inactive)
- IC50 (Cysteine protease ATG4B): 5.4 µM (active)
- IC50 (Phospholipase A2): 1.51 µM (active)
- EC50 [5]: < 6 µM (inconclusive)

Compound: CC(C)C(C(=O)O)N1C(=O)/C(=C/C=C/c2ccco2)SC1=S (stereo unspecified)
- IC50 (Troponin, cardiac muscle): 22.4 µM (inactive)
- IC50 (Ephrin type-A receptor 4): 5.26 µM (active)
- IC50 [6]: 47.9 µM (active)
- IC50 [7]: > 54 µM (active)

Compound: O=C1CCN2C=Nc3cccc4ccc1c2c34
- IC50 (Beta-lactamase): 11.8 µM (inactive)
- AC50 [8]: 2.33 µM (active)
- EC50 (Insulin-degrading enzyme): > 54.7 µM (inactive)
- IC50 (HEK293): > 89.2 µM (inactive)
